Source: US9884849B2, “Fluorinated benzofuranyl-pyrimidine derivatives containing a sulfoximine group” (Bayer Pharma Aktiengesellschaft, priority 2014, dated 2018)
Where two headings read alike, the source gives them in different places.

Key:
HeLa-MaTu-ADR cells = assay: Proliferation assay HeLa-MaTu-ADR (Method 3); assay type: cell-based, human; settings: 4 days, crystal violet, read-out: Inhibition of HeLa-MaTu-ADR cell proliferation IC50
Protocol: (§1) Cultivated tumour cells (HeLa, human cervical tumour cells, ATCC CCL-2; NCI-H460, human non-small cell lung carcinoma cells, ATCC HTB-177; A2780, human ovarian carcinoma cells, ECACC #93112519; DU 145, hormone-independent human prostate carcinoma cells, ATCC HTB-81; HeLa-MaTu-ADR, multidrug-resistant human cervical carcinoma cells, EPO-GmbH Berlin; Caco-2, human colorectal carcinoma cells, ATCC HTB-37; B16F10, mouse melanoma cells, ATCC CRL-6475) were plated at a density of 5,000 cells/well (DU145, HeLa-MaTu-ADR), 3,000 cells/well (NCI-H460, HeLa), 2,500 cells/well (A2780), 1,500 cells/well (Caco-2), or 1,000 cells/well (B16F10) in a 96-well multititer plate in 200 μL of their respective growth medium supplemented 10% fetal calf serum. After 24 hours, the cells of one plate (zero-point plate) were stained with crystal violet (see below), while the medium of the other plates was replaced by fresh culture medium (200 μl), to which the test substances were added in various concentrations (0 μM, as well as in the range of 0.001-10 μM; the final concentration of the solvent dimethyl sulfoxide was 0.5%). The cells were incubated for 4 days in the presence of test substances. Cell proliferation was determined by staining the cells with crystal violet: the cells were fixed by adding 20 μl/measuring point of an 11% glutaric aldehyde solution for 15 minutes at room temperature. After three washing cycles of the fixed cells with water, the plates were dried at room temperature. The cells were stained by adding 100 μl/measuring point of a 0.1% crystal violet solution (pH 3.0). After three washing cycles of the stained cells with water, the plates were dried at room temperature. The dye was dissolved by adding 100 μl/measuring point of a 10% acetic acid solution. The extinction was determined by photometry at a wavelength of 595 nm. The change of cell number, in percent, was calculated by normalization of the measured values to the extinction values of the zero-point plate (=0%) and the extinction of the untreated (0 μm) cells (=100%). The IC50 values (inhibitory concentration at 50% of maximal effect) were determined by means of a 4 parameter fit.

B16F10 cells = assay: Proliferation assay B16F10 (Method 3); assay type: cell-based, mouse; settings: 4 days, crystal violet, read-out: Inhibition of Bc6F10 cell proliferation IC50
Protocol: as §1

NCI-H460 cells = assay: Proliferation assay NCI-H460 (Method 3); assay type: cell-based, human; settings: NCI-H460, 4 days, crystal violet, read-out: Inhibition of NCI-H460 cell proliferation IC50
Protocol: as §1

CDK2/CycE = biological target: T1, CDK2/CycE (Homo sapiens, UniProt P24941); assay: CDK2/CycE kinase assay (Method 2a, TR-FRET); assay type: biochemical; settings: 10 μM ATP
T1 construct: GST; purchased ProQinase GmbH (Freiburg, Germany); host or cells: insect cells (Sf9)
From the text: 2a. CDK2/CycE kinase assay:
CDK2/CycE-Inhibitory Activity of Compounds of the Present Invention was Quantified Employing the CDK2/CycE TR-FRET Assay as Described in the Following Paragraphs:
Recombinant fusion proteins of GST and human CDK2 and of GST and human CycE, expressed in insect cells (Sf9) and purified by Glutathion-Sepharose affinity chromatography, were purchased from ProQinase GmbH (Freiburg, Germany). As substrate for the kinase reaction biotinylated peptide biotin-Ttds-YISPLKSPYKISEG (C-terminus in amid form) was used which can be purchased e.g. form the company JERINI Peptide Technologies (Berlin, Germany).
For the assay 50 nl of a 100 fold concentrated solution of the test compound in DMSO was pipetted into a black low volume 384 well microtiter plate (Greiner Bio-One, Frickenhausen, Germany), 2 yl of a solution of CDK2/CycE in aqueous assay buffer [50 mM Tris/HCl pH 8.0, 10 mM MgCl2, 1.0 mM dithiothreitol, 0.1 mM sodium ortho-vanadate, 0.01% (v/v) Nonidet-P40 (Sigma)] were added and the mixture was incubated for 15 min at 22° C. to allow pre-binding of the test compounds to the enzyme before the start of the kinase reaction. […] The concentration of CDK2/CycE was adjusted depending of the activity of the enzyme lot and was chosen appropriate to have the assay in the linear range, typical concentrations were in the range of 130 ng/mL. The reaction was stopped by the addition of 5 yl of a solution of TR-FRET detection reagents (0.2 μM streptavidine-XL665 [Cisbio Bioassays, Codolet, France] and 1 nM anti-RB(pSer807/pSer811)-antibody from BD Pharmingen [#558389] and 1.2 nM LANCE EU-W1024 labeled anti-mouse IgG antibody [Perkin-Elmer, product no. AD0077]) in an aqueous EDTA-solution (100 mM EDTA, 0.2% (w/v) bovine serum albumin in 100 mM HEPES/NaOH pH 7.0).
The resulting mixture was incubated 1 h at 22° C. to allow the formation of complex between the phosphorylated biotinylated peptide and the detection reagents. Subsequently the amount of phosphorylated substrate was evaluated by measurement of the resonance energy transfer from the Eu-chelate to the streptavidine-XL. Therefore, the fluorescence emissions at 620 nm and 665 nm after excitation at 350 nm was measured in a TR-FRET reader, e.g. a Rubystar (BMG Labtechnologies, Offenburg, Germany) or a Viewlux (Perkin-Elmer). The ratio of the emissions at 665 nm and at […] was taken as the measure for the amount of phosphorylated substrate. The data were normalised (enzyme reaction without inhibitor=0% inhibition, all other assay components but no enzyme=100% inhibition).

A2780 cells = assay: Proliferation assay A2780 (Method 3); assay type: cell-based, human; settings: A2780, 4 days, crystal violet, read-out: Inhibition of A2780 cell proliferation IC50
Protocol: as §1

| IC50 (HeLa-MaTu-ADR cells) | IC50 (B16F10 cells) | IC50 (NCI-H460 cells) | IC50 (CDK2/CycE) | IC50 (A2780 cells) | IC50 (NCI-H460 cells; Homo sapiens, NCI-H460, 96 h) | IC50 (A2780 cells; Homo sapiens, A2780, 96 h) | IC50 (HeLa-MaTu-ADR cells; Homo sapiens, 96 h) | IC50 (B16F10 cells; Mus musculus, B16-F10, 96 h) | Compound |
| --- | --- | --- | --- | --- | --- | --- | --- | --- | --- |
| 0.042 µM | 0.052 µM | 0.106 µM | 0.088 µM | 0.019 µM | – | – | – | – | CS(=O)(Cc1cc(F)cc(Nc2ncc(F)c(-c3ccc(F)c4ccoc34)n2)c1)=NC#N (single isomer, unassigned) [Example 9, [(3-Fluoro-5-{[5-fluoro-4-(4-fluoro-1-benzofuran-7-yl)pyrimidin-2-yl]amino}benzyl)(methyl)-oxido-λ^6-sulfanylidene]cyanamide] |
| 0.2 µM | 0.045 µM | – | 0.073 µM | – | 0.083 µM | 0.032 µM | – | – | CS(=N)(=O)Cc1cc(F)cc(Nc2ncc(F)c(-c3ccc(F)c4ccoc34)n2)c1 (single isomer, unassigned) [Example 11, 5-Fluoro-4-(4-fluoro-1-benzofuran-7-yl)-N-{3-fluoro-5-[(S-methylsulfonimidoyl)-methyl]-phenyl}-pyrimidin-2-amine] |
| 0.088 µM | 0.094 µM | 0.059 µM | 0.048 µM | 0.035 µM | – | – | – | – | CS(=N)(=O)Cc1cc(F)cc(Nc2ncc(F)c(-c3ccc(F)c4ccoc34)n2)c1 (single isomer, unassigned) [Example 12, 5-Fluoro-4-(4-fluoro-1-benzofuran-7-yl)-N-{3-fluoro-5-[(S-methylsulfonimidoyl)-methyl]-phenyl}-pyrimidin-2-amine] |
| – | – | – | 0.065 µM | – | 0.112 µM | 0.045 µM | 0.057 µM | 0.069 µM | Cc1cc(CS(C)(=O)=NC#N)cc(Nc2ncc(F)c(-c3ccc(F)c4ccoc34)n2)c1 (single isomer, unassigned) [Example 14, [(3-{[5-Fluoro-4-(4-fluoro-1-benzofuran-7-yl)pyrimidin-2-yl]amino}-5-methylbenzyl)-(methyl)oxido-λ^6-sulfanylidene]cyanamide] |
| 0.11 µM | 0.114 µM | 0.121 µM | 0.095 µM | 0.063 µM | – | – | – | – | Cc1cc(CS(C)(=O)=NC#N)cc(Nc2ncc(F)c(-c3ccc(F)c4ccoc34)n2)c1 (single isomer, unassigned) [Example 15, [(3-{[5-Fluoro-4-(4-fluoro-1-benzofuran-7-yl)pyrimidin-2-yl]amino}-5-methylbenzyl)-(methyl)oxido-λ^6-sulfanylidene]cyanamide] |
